Like-named read-outs stand apart in the source and are kept apart here.
What was measured:
[1] = biological target: EGFR wt. (Homo sapiens (Human), UniProt P00533); experiment: HTRF enzyme assay, wild-type EGFR; type: biochemical; conditions: recombinant enzyme
Method: (§1) The measurement of an activity on wild-type and EGFR mutation enzyme of the compound of the present invention was experimented by utilizing the HTRF system sold by Cisbio, as follow.
(§2) The composition of the assay buffer used in the activity measurement was 50 mM Tris-HCl pH 7.5, 100 mM NaCl, 7.5 mM MgCl2, 3 mM KCl, 0.01% Tween 20, 0.1% BSA, 1 mM DTT. The enzymatic reaction was carried out hereto by using the peptide substrate labeled with ATP of […] concentration and biotin of […] concentration. The analysis of an EGFR activity inhibitory effect of the compound was carried out in accordance with the analysis reaction recipe below.
(§3) Component 1: […] of EGFR wild-type or mutation enzyme
(§4) Component 2: […] of compound solution
(§5) Component 3: […] of peptide labeled with ATP and biotin
(§6) The enzymatic reaction was initiated by mixing Component 1 and Component 2 first, and then, adding component 3. After the reaction for 2 hours at 37° C., […] of a measurement solution consisting of streptavidin-XL665 provided by Cisbio and anti-phosphotyrosine antibody labeled with europium was added to the enzymatic reaction solution and reacted for 1 hour at ambient temperature. […] The measurement values measured at the seven concentrations of the compound were analyzed by using the Prism program (version 5.01, Graphpad Software, Inc.), and IC50 value of the compound was calculated, which is an inhibitory ability indicator.

[2] = biological target: EGFR del19/T790M (Homo sapiens (Human), UniProt P00533, DEL746-750/T790M); experiment: HTRF enzyme assay, EGFR del19/T790M; type: biochemical; conditions: recombinant enzyme
Method: as §1, §2, §3, §4, §5, §6

[3] = biological target: EGFR del19/T790M/C797S (Homo sapiens, UniProt P00533, C797S/DEL746-750/T790M); experiment: HTRF enzyme assay, EGFR del19/T790M/C797S; type: biochemical
Method: as §1, §2, §3, §4, §5, §6

[4] = biological target: EGFR del19 (Homo sapiens (Human), UniProt P00533, DEL746-750); experiment: HTRF enzyme assay, EGFR del19; type: biochemical; conditions: recombinant enzyme
Method: as §1, §2, §3, §4, §5, §6

[5] = system: Ba/F3 EGFR del19/T790M/C797S cell line; experiment: CellTiter-Glo cell viability, Ba/F3 EGFR del19/T790M/C797S; type: cell-based; conditions: read-out: Ba/F3 EGFR del19/T790M/C797S IC50
Method: (§7) The measurement of an activity on wild-type and mutation Ba/F3 EGFR cell line of the compound of the present invention was experimented by utilizing the CellTiter-Glo system sold by Promega, as follow. The CellTiter-Glo assay is a method for measuring the ATP present in cells in cell culture conditions to determine the cell viability.
(§8) The analysis of an EGFR inhibitory ability effect of the compound was carried out in accordance with the analysis reaction recipe below.
(§9) After the reaction of 72 hours, the plate treated with the compound was allowed to stand for 30 minutes at ambient temperature, and then, was further treated with 100 μl of the reagent, and was shaked for 10 minutes at ambient temperature.

[6] = system: Ba/F3 EGFR wt. cell line; experiment: CellTiter-Glo cell viability, Ba/F3 EGFR wild-type; type: cell-based; conditions: 72 hours
Method: as §7, §8
(§10) After the reaction of 72 hours, the plate treated with the compound was allowed to stand for 30 minutes at ambient temperature, and then, was further treated with 100 μl of the reagent, and was shaked for 10 minutes at ambient temperature. […] The measurement values measured at the eight concentrations of the compound were analyzed by using the Prism program (version 5.01, Graphpad Software, Inc.), and IC50 value of the compound was calculated, which is an inhibitory ability indicator.

[7] = system: Ba/F3 EGFR del19 cell line; experiment: CellTiter-Glo cell viability, Ba/F3 EGFR del19; type: cell-based; conditions: 72 hours
Method: as §7, §8, §10

[8] = system: Ba/F3 EGFR del19/T790M cell line; experiment: CellTiter-Glo cell viability, Ba/F3 EGFR del19/T790M; type: cell-based; conditions: read-out: Ba/F3 EGFR del19/T790M IC50
Method: as §7, §8, §9

[9] = HTRF, recombinant enzyme, read-out: EGFR del19/T790M/C797S IC50

Chain of EGFR del19/T790M/C797S (P00533 with tags, fused parts or gaps C797S/DEL746-750/T790M limits assumed): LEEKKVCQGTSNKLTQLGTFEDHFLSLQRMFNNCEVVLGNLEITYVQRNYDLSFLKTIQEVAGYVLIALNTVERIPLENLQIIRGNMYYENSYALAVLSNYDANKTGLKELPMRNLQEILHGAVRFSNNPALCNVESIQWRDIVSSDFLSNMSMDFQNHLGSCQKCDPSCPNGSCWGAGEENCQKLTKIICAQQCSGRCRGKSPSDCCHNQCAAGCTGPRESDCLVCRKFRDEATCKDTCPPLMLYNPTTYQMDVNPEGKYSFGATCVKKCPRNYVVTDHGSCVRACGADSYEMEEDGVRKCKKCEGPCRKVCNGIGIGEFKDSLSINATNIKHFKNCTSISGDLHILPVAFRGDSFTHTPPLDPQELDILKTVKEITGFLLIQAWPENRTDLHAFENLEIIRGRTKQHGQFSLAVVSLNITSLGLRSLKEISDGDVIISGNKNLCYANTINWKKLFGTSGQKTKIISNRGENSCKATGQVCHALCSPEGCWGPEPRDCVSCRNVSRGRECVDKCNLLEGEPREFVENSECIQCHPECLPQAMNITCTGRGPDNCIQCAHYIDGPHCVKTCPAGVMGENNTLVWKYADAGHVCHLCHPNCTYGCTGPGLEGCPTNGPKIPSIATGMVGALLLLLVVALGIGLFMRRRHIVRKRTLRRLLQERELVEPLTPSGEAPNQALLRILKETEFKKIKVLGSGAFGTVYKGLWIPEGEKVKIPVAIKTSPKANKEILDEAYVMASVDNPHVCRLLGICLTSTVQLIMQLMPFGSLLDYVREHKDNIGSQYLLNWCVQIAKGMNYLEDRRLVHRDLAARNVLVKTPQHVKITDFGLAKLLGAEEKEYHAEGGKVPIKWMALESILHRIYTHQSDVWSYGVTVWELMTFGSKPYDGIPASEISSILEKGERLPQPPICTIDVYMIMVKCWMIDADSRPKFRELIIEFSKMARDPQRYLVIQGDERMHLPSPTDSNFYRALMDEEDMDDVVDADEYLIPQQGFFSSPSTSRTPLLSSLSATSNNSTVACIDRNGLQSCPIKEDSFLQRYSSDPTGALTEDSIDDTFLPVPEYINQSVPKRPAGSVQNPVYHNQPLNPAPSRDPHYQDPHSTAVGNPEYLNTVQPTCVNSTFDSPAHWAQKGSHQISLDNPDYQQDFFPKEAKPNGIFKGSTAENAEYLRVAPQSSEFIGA
Chain of EGFR del19/T790M (P00533 other isoform, or with tags, fused parts or gaps T790M/del 1-668/del 746-750 limits assumed): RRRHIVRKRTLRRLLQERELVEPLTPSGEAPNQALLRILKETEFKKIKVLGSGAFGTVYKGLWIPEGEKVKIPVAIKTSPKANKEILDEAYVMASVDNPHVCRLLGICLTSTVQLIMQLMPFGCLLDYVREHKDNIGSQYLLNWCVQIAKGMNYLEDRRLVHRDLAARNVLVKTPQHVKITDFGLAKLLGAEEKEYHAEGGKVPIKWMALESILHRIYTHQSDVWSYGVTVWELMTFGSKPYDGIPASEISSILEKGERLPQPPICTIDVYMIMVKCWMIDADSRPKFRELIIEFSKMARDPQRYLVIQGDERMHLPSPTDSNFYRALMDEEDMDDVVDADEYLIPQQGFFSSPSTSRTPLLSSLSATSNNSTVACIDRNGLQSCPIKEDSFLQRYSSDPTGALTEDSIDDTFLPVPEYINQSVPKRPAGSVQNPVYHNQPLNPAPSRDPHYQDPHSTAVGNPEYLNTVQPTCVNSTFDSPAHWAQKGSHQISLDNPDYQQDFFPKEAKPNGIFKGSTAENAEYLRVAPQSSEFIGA
Chain of EGFR del19 (P00533 other isoform, or with tags, fused parts or gaps del 1-668/del 746-750 limits assumed): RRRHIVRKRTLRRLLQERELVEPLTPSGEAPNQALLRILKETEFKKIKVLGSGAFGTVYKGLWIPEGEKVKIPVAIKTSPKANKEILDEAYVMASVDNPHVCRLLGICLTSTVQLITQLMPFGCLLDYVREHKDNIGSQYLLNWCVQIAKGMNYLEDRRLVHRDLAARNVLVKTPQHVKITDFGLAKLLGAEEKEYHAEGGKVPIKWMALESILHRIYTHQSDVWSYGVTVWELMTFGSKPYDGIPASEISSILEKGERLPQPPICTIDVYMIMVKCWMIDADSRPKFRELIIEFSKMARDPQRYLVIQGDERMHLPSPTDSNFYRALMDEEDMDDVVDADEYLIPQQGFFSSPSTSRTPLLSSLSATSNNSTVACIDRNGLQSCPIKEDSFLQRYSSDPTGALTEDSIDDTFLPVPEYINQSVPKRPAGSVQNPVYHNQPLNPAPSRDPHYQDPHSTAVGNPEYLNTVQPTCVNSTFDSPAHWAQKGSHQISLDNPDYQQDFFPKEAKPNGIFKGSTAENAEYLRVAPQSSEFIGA
Chain of EGFR wt. (P00533 25-1210): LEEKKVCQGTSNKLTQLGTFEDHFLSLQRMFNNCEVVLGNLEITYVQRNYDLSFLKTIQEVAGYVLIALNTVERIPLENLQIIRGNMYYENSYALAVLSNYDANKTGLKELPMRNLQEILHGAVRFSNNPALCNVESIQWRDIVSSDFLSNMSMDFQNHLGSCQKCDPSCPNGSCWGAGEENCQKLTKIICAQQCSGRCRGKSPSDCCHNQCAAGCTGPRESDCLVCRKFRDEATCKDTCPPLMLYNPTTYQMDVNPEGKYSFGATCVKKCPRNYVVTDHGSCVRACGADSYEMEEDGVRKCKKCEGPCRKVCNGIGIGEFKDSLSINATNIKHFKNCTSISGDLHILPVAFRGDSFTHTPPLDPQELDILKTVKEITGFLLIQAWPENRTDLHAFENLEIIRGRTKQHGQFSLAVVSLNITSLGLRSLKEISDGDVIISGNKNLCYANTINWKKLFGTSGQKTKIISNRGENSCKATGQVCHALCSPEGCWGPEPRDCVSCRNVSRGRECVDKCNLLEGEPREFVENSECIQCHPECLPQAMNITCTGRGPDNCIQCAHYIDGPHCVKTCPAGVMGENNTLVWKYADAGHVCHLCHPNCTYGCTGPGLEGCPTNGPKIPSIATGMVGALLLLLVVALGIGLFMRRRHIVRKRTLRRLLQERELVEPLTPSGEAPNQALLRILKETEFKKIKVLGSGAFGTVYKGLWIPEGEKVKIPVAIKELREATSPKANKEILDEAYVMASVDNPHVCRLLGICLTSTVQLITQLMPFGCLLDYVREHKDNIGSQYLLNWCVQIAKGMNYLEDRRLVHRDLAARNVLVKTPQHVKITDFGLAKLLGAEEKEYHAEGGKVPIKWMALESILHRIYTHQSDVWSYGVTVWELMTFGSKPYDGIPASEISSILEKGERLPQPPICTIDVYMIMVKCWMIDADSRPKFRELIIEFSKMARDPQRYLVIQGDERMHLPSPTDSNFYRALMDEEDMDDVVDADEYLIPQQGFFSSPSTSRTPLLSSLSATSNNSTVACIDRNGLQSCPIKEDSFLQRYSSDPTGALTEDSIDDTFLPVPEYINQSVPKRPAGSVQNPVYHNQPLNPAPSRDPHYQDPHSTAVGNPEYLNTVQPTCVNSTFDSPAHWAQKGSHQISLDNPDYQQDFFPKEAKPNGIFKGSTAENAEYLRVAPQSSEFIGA

SMILES | IC50 [1] [nM] | IC50 [2] [nM] | IC50 [3, 9] [nM] | IC50 [4] [nM] | IC50 ([5]; CellTiter-Glo, 72 hours) [nM] | IC50 [6] [nM] | IC50 [7] [nM] | IC50 ([8]; CellTiter-Glo, 72 hours) [nM] | IC50 [3] [nM] | IC50 ([8]; 72 h) [nM] | IC50 ([5]; 72 h) [nM]
COc1cc(N2CCC(N3CCOCC3)CC2)ccc1Nc1ncc(Cl)c(Nc2ccccc2NS(C)(=O)=O)n1 [Example 34, N-(2-((5-chloro-2-((2-methoxy-4-(4-morpholinopiperidin-1-yl)phenyl)amino)pyrimidin-4-yl)amino)phenyl)methanesulfonamide] | – | – | < 1 | – | 160 | – | – | – | – | – | –
CNC1CCN(c2ccc(Nc3ncc(Cl)c(Nc4ccccc4NS(C)(=O)=O)n3)c(OC)c2)CC1 [Example 40, N-(2-((5-chloro-2-((2-methoxy-4-(4-(methylamino)piperidin-1-yl)phenyl)amino)pyrimidin-4-yl)amino)phenyl)methanesulfonamide] | – | – | – | – | 500 | – | – | – | – | – | –
COc1cc(N2CCC(N3CCN(C(C)=O)CC3)CC2)ccc1Nc1ncc(Cl)c(Nc2ccccc2NS(C)(=O)=O)n1 [Example 19, N-(2-((2-((4-(4-(4-acetylpiperazin-1-yl)piperidin-1-yl)-2-methoxyphenyl)amino)-5-chloropyrimidin-4-yl)amino)phenyl)methanesulfonamide] | 700 | 69 | 42 | 0.7 | 970 | 3100 | 1100 | 660 | – | – | –
COc1cc(N2CCNCC2)ccc1Nc1ncc(Cl)c(Nc2ccccc2NS(C)(=O)=O)n1 [Example 23, N-(2-((5-chloro-2-((2-methoxy-4-(piperazin-1-yl)phenyl)amino)pyrimidin-4-yl)amino)phenyl)methanesulfonamide] | 2700 | 32 | 29 | 25 | – | – | – | – | – | – | –
COc1cc(N2CCN(C)CC2)ccc1Nc1ncc(Cl)c(Nc2ccccc2NS(C)(=O)=O)n1 [Example 28, N-(2-((5-chloro-2-((2-methoxy-4-(4-methylpiperazin-1-yl)phenyl)amino)pyrimidin-4-yl)amino)phenyl)methanesulfonamide] | 640 | 27 | 9 | 0.9 | 1700 | 1400 | 1400 | 690 | – | – | –
COc1cc(C2CCNCC2)ccc1Nc1ncc(Cl)c(Nc2ccccc2NS(C)(=O)=O)n1 [Example 1, N-(2-((5-chloro-2-((2-methoxy-4-(piperidin-4-yl)phenyl)amino)pyrimidin-4-yl)amino)phenyl)methanesulfonamide] | – | – | – | – | – | > 15000 | 6600 | 7100 | – | – | –
COc1cc(N2CCN(C3CCN(C)CC3)CC2)ccc1Nc1ncc(Cl)c(Nc2ccccc2NS(C)(=O)=O)n1 [Example 25, N-(2-((5-chloro-2-((2-methoxy-4-(4-(1-methylpiperidin-4-yl)piperazin-1-yl)phenyl)amino)pyrimidin-4-yl)amino)phenyl)methanesulfonamide] | 300 | 18 | 9 | 0.2 | 27 | 340 | 210 | 780 | – | – | –
COc1cc(N2CCC(N3CCN(CCO)CC3)CC2)ccc1Nc1ncc(Cl)c(Nc2ccccc2NS(C)(=O)=O)n1 [Example 22, N-(2-((5-chloro-2-((4-(4-(4-(2-hydroxyethyl)piperazin-1-yl)piperidin-1-yl)-2-methoxyphenyl)amino)pyrimidin-4-yl)amino)phenyl)methanesulfonamide] | 260 | 31 | – | 0.4 | – | – | 900 | – | 0.8 | 390 | 1300

Continued, in another order:

IC50 [1] [nM] | IC50 [2] [nM] | IC50 [3, 9] [nM] | IC50 [4] [nM] | IC50 ([5]; CellTiter-Glo, 72 hours) [nM] | IC50 [6] [nM] | IC50 [7] [nM] | IC50 ([8]; CellTiter-Glo, 72 hours) [nM] | SMILES | IC50 [3] [nM] | IC50 ([8]; 72 h) [nM] | IC50 ([5]; 72 h) [nM]
580 | 29 | 7 | 36 | – | – | – | – | COc1cc(N2CCNCC2)ccc1Nc1ncc(C(F)(F)F)c(Nc2ccccc2NS(C)(=O)=O)n1 [Example 31, N-(2-((2-((2-methoxy-4-(piperazin-4-yl)phenyl)amino)-5-(trifluoromethyl)pyrimidin-4-yl)amino)phenyl)methanesulfonamide] | – | – | –
730 | 12 | 3 | 12 | 2400 | 2800 | 3800 | 1800 | COc1cc(C2CCNCC2)c(C)cc1Nc1ncc(Cl)c(Nc2ccccc2NS(C)(=O)=O)n1 [Example 2, N-(2-((5-chloro-2-((2-methoxy-5-methyl-4-(piperidin-4-yl)phenyl)amino)pyrimidin-4-yl)amino)phenyl)methanesulfonamide] | – | – | –
970 | 92 | 30 | 13 | 2000 | 4400 | 2700 | 1400 | COc1cc(C2CCN(C3CCN(C(C)=O)CC3)CC2)ccc1Nc1ncc(Cl)c(Nc2ccccc2NS(C)(=O)=O)n1 [Example 18, N-(2-((2-((4-(1′-acetyl-[1,4′-bipiperidin]-4-yl)-2-methoxyphenyl)amino)-5-chloropyrimidin-4-yl)amino)phenyl)methanesulfonamide] | – | – | –
– | – | – | – | 840 | – | – | – | COc1cc(N2CCC(N)CC2)ccc1Nc1ncc(Cl)c(Nc2ccccc2NS(C)(=O)=O)n1 [Example 38, N-(2-((2-((4-(4-aminopiperidin-1-yl)-2-methoxyphenyl)amino)-5-chloropyrimidin-4-yl)amino)phenyl)methanesulfonamide] | – | – | –
160 | 14 | 5 | 0.1 | 1700 | 2200 | 3600 | 550 | COc1cc(N2CCC(N3CCNCC3)CC2)ccc1Nc1ncc(Cl)c(Nc2ccccc2NS(C)(=O)=O)n1 [Example 21, N-(2-((5-chloro-2-((2-methoxy-4-(4-(piperazin-1-yl)piperidin-1-yl)phenyl)amino)pyrimidin-4-yl)amino)phenyl)methanesulfonamide] | – | – | –
– | – | < 1 | – | 120 | – | – | – | COc1cc(N2CCC(N3C[C@@H](C)N[C@@H](C)C3)CC2)ccc1Nc1ncc(Cl)c(Nc2ccccc2NS(C)(=O)=O)n1 [Example 33, N-(2-((5-chloro-2-((4-(4-((3R,5S)-3,5-dimethylpiperazin-1-yl)piperidin-1-yl)-2-methoxyphenyl)amino)pyrimidin-4-yl)amino)phenyl)methanesulfonamide] | – | – | –
5400 | 340 | 23 | 44 | > 10000 | > 10000 | > 10000 | 2300 | COc1cc(C2CCN(C3CCNCC3)CC2)ccc1Nc1ncc(Cl)c(Nc2ccccc2NS(C)(=O)=O)n1 [Example 16, N-(2-((2-((4-([1,4′-bipiperidin]-4-yl)-2-methoxyphenyl)amino)-5-chloropyrimidin-4-yl)amino)phenyl)methanesulfonamide] | – | – | –
– | – | – | – | 930 | – | – | – | COc1cc(N2CCC(N(C)C)CC2)ccc1Nc1ncc(Cl)c(Nc2ccccc2NS(N)(=O)=O)n1 [Example 36] | – | – | –
280 | 21 | 1 | 0.3 | > 10000 | – | 1100 | 940 | COc1cc(N2CCN(C3CCNCC3)CC2)ccc1Nc1ncc(Cl)c(Nc2ccccc2NS(C)(=O)=O)n1 [Example 27, N-(2-((5-chloro-2-((2-methoxy-4-(4-(piperidin-4-yl)piperazin-1-yl)phenyl)amino)pyrimidin-4-yl)amino)phenyl)methanesulfonamide] | – | – | –
27 | 8.3 | < 1 | 1.1 | 84 | – | – | – | COc1cc(N2CCC(N3CCCC3)CC2)ccc1Nc1ncc(Cl)c(Nc2ccccc2NS(C)(=O)=O)n1 [Example 35, N-(2-((5-chloro-2-((2-methoxy-4-(4-(pyrrolidin-1-yl)piperidin-1-yl)phenyl)amino)pyrimidin-4-yl)amino)phenyl)methanesulfonamide] | – | – | –

From patent publication US11253516B2, “N2,N4-diphenylpyrimidine-2,4-diamine derivative, method for preparing same, and pharmaceutical composition containing same as active ingredient for prevention or treatment of cancer” (Korea Research Institute of Chemical Technology, priority 2017, dated 2022)
